From PubChem BioAssay AID1963844 (Molecular Pharmacology Branch, DTP, NCI, 2024)

System: 422866-222-R5-J1-PDC complex spheroid viability
Assay: Anticancer human tumor 422866-222-R5-J1-PDC patient-derived pancreatic adenocarcinoma cell line growth inhibition [POLQ]
Details: for IC50: curve of first compound; for viability, T/C: stronger effect = lower value
Procedure, shortened: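 Three-cell-type spheroids modelling solid tumor plus stroma served as the readout system; POL inhibitors were tested individually and in combination, concentration ranges set by clinical Cmax where known.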

[1] = second compound 0.0316 µM, first compound 0.0316 µM
[2] = second compound 0.0316 µM, first compound 0.1 µM
[3] = second compound 0.0316 µM, first compound 0.316 µM
[4] = second compound 0.0316 µM, first compound 1 µM
[5] = second compound 0.0316 µM, first compound 3.16 µM
[6] = second compound 0.0316 µM, first compound 10 µM
[7] = second compound 0.1 µM, first compound 0.0316 µM
[8] = second compound 0.1 µM, first compound 0.1 µM
[9] = second compound 0.1 µM, first compound 0.316 µM
[10] = second compound 0.1 µM, first compound 1 µM
[11] = second compound 0.1 µM, first compound 3.16 µM
[12] = second compound 0.1 µM, first compound 10 µM
[13] = second compound 0.316 µM, first compound 0.0316 µM
[14] = second compound 0.316 µM, first compound 0.1 µM
[15] = second compound 0.316 µM, first compound 0.316 µM
[16] = second compound 0.316 µM, first compound 1 µM
[17] = second compound 0.316 µM, first compound 3.16 µM
[18] = second compound 0.316 µM, first compound 10 µM
[19] = second compound 1 µM, first compound 0.0316 µM
[20] = second compound 1 µM, first compound 0.1 µM
[21] = second compound 1 µM, first compound 0.316 µM
[22] = second compound 1 µM, first compound 1 µM
[23] = second compound 1 µM, first compound 3.16 µM
[24] = second compound 1 µM, first compound 10 µM
[25] = second compound 3.16 µM, first compound 0.0316 µM
[26] = second compound 3.16 µM, first compound 0.1 µM
[27] = second compound 3.16 µM, first compound 0.316 µM
[28] = second compound 3.16 µM, first compound 1 µM
[29] = second compound 3.16 µM, first compound 3.16 µM
[30] = second compound 3.16 µM, first compound 10 µM
[31] = second compound 10 µM, first compound 0.0316 µM
[32] = second compound 10 µM, first compound 0.1 µM
[33] = second compound 10 µM, first compound 0.316 µM
[34] = second compound 10 µM, first compound 1 µM
[35] = second compound 10 µM, first compound 3.16 µM
[36] = second compound 10 µM, first compound 10 µM
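Note: spheroids exposed to compounds for one week before readout.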
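Throughout, for viability, T/C: percent of DMSO vehicle wells luminescence so 100% = untreated viability.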

Structure (SMILES): COc1cccc2c1C(=O)c1c(O)c3c(c(O)c1C2=O)CC(O)(C(=O)CO)CC3OC1CC(N)C(O)C(C)O1 (stereo not drawn) + COC1C(OC(N)=O)C(O)C(Oc2ccc3c(O)c(NC(=O)c4ccc(O)c(CC=C(C)C)c4)c(=O)oc3c2C)OC1(C)C
- IC50 (second compound 0.0316 µM): 242 nM
- IC50 (second compound 0.1 µM): 225 nM
- IC50 (second compound 0.316 µM): 236 nM
- IC50 (second compound 1 µM): 250 nM
- IC50 (second compound 3.16 µM): 217 nM
- IC50 (second compound 10 µM): 224 nM
- viability, T/C [1]: 60.2%
- viability, T/C [2]: 110%
- viability, T/C [3]: 39.3%
- viability, T/C [4]: 29.7%
- viability, T/C [5]: 30%
- viability, T/C [6]: 35.5%
- viability, T/C [7]: 75.5%
- viability, T/C [8]: 94.4%
- viability, T/C [9]: 35.4%
- viability, T/C [10]: 25.3%
- viability, T/C [11]: 28.9%
- viability, T/C [12]: 33.3%
- viability, T/C [13]: 67.5%
- viability, T/C [14]: 102%
- viability, T/C [15]: 38.1%
- viability, T/C [16]: 26.9%
- viability, T/C [17]: 26.9%
- viability, T/C [18]: 30.9%
- viability, T/C [19]: 71.2%
- viability, T/C [20]: 104%
- viability, T/C [21]: 40.3%
- viability, T/C [22]: 21.8%
- viability, T/C [23]: 26.9%
- viability, T/C [24]: 29.5%
- viability, T/C [25]: 54.5%
- viability, T/C [26]: 107%
- viability, T/C [27]: 35%
- viability, T/C [28]: 23.9%
- viability, T/C [29]: 25.6%
- viability, T/C [30]: 38.9%
- viability, T/C [31]: 56.1%
- viability, T/C [32]: 106%
- viability, T/C [33]: 36.8%
- viability, T/C [34]: 26.7%
- viability, T/C [35]: 28.9%
- viability, T/C [36]: 29.8%

Structure (SMILES): CC1COCCN1c1cc(C2(O)CC3CCC(C2)O3)c2cnn(-c3ccn[nH]3)c2n1 (stereo not drawn) + COC1C(OC(N)=O)C(O)C(Oc2ccc3c(O)c(NC(=O)c4ccc(O)c(CC=C(C)C)c4)c(=O)oc3c2C)OC1(C)C
- IC50 (second compound 0.0316 µM): > 10000 nM
- IC50 (second compound 0.1 µM): > 10000 nM
- IC50 (second compound 0.316 µM): < 31.6 nM
- IC50 (second compound 1 µM): > 10000 nM
- IC50 (second compound 3.16 µM): > 10000 nM
- IC50 (second compound 10 µM): > 10000 nM
- viability, T/C [1]: 71.4%
- viability, T/C [2]: 47.9%
- viability, T/C [3]: 45.8%
- viability, T/C [4]: 83.7%
- viability, T/C [5]: 70.7%
- viability, T/C [6]: 79.8%
- viability, T/C [7]: 73.5%
- viability, T/C [8]: 47%
- viability, T/C [9]: 41.9%
- viability, T/C [10]: 65.3%
- viability, T/C [11]: 76.8%
- viability, T/C [12]: 66.4%
- viability, T/C [13]: 72.9%
- viability, T/C [14]: 36.2%
- viability, T/C [15]: 37%
- viability, T/C [16]: 77.8%
- viability, T/C [17]: 71.5%
- viability, T/C [18]: 71.7%
- viability, T/C [19]: 75.6%
- viability, T/C [20]: 45.3%
- viability, T/C [21]: 47.8%
- viability, T/C [22]: 77.7%
- viability, T/C [23]: 63.4%
- viability, T/C [24]: 77.7%
- viability, T/C [25]: 84.3%
- viability, T/C [26]: 44.4%
- viability, T/C [27]: 48%
- viability, T/C [28]: 75.2%
- viability, T/C [29]: 67.5%
- viability, T/C [30]: 71.1%
- viability, T/C [31]: 79.1%
- viability, T/C [32]: 52.7%
- viability, T/C [33]: 40.7%
- viability, T/C [34]: 82.9%
- viability, T/C [35]: 75.2%
- viability, T/C [36]: 65.6%

Structure (SMILES): Nc1ccn(C2OC(CO)C(O)C2(F)F)c(=O)n1 (stereo not drawn) + Nc1ccc(C#CCN(C(=O)Cc2ncc(C(F)(F)F)cc2C(F)(F)F)c2ccc(F)cc2)nn1
- IC50 (second compound 0.0316 µM): < 31.6 nM
- IC50 (second compound 0.1 µM): 55.2 nM
- IC50 (second compound 0.316 µM): 72.6 nM
- IC50 (second compound 1 µM): 71.5 nM
- IC50 (second compound 3.16 µM): 118 nM
- IC50 (second compound 10 µM): 539 nM
- viability, T/C [1]: 57.9%
- viability, T/C [2]: 42.5%
- viability, T/C [3]: 28.7%
- viability, T/C [4]: 38.4%
- viability, T/C [5]: 36.9%
- viability, T/C [6]: 39.2%
- viability, T/C [7]: 62.2%
- viability, T/C [8]: 37.7%
- viability, T/C [9]: 30.6%
- viability, T/C [10]: 32.4%
- viability, T/C [11]: 38.1%
- viability, T/C [12]: 36.4%
- viability, T/C [13]: 66.8%
- viability, T/C [14]: 43.5%
- viability, T/C [15]: 30.4%
- viability, T/C [16]: 40.1%
- viability, T/C [17]: 33.2%
- viability, T/C [18]: 34.4%
- viability, T/C [19]: 75%
- viability, T/C [20]: 39.8%
- viability, T/C [21]: 36.8%
- viability, T/C [22]: 34.3%
- viability, T/C [23]: 36.1%
- viability, T/C [24]: 49%
- viability, T/C [25]: 72.8%
- viability, T/C [26]: 52.5%
- viability, T/C [27]: 35.3%
- viability, T/C [28]: 31.8%
- viability, T/C [29]: 34.1%
- viability, T/C [30]: 41%
- viability, T/C [31]: 98.8%
- viability, T/C [32]: 67.9%
- viability, T/C [33]: 68.8%
- viability, T/C [34]: 34.8%
- viability, T/C [35]: 31.7%
- viability, T/C [36]: 30.6%

Structure (SMILES): COc1ccc([C@@H](O)c2cc(-c3ncnc4cc(N5CCOCC5)ccc34)c(F)cc2Cl)nn1 + Cc1cccc(N(C)C(=O)C2C(O)CCN2c2nc(C)cc(C(F)(F)F)c2C#N)c1
- IC50 (second compound 0.0316 µM): 2600 nM
- IC50 (second compound 0.1 µM): 4620 nM
- IC50 (second compound 0.316 µM): 2420 nM
- IC50 (second compound 1 µM): 1920 nM
- IC50 (second compound 3.16 µM): 1650 nM
- IC50 (second compound 10 µM): 2280 nM
- viability, T/C [1]: 91.6%
- viability, T/C [2]: 92.2%
- viability, T/C [3]: 77.4%
- viability, T/C [4]: 62.1%
- viability, T/C [5]: 49.1%
- viability, T/C [6]: 35.5%
- viability, T/C [7]: 92%
- viability, T/C [8]: 81.3%
- viability, T/C [9]: 83.2%
- viability, T/C [10]: 64.5%
- viability, T/C [11]: 54.5%
- viability, T/C [12]: 42.3%
- viability, T/C [13]: 108%
- viability, T/C [14]: 86.3%
- viability, T/C [15]: 70.9%
- viability, T/C [16]: 61.3%
- viability, T/C [17]: 43.9%
- viability, T/C [18]: 41.4%
- viability, T/C [19]: 89.9%
- viability, T/C [20]: 81.1%
- viability, T/C [21]: 85.9%
- viability, T/C [22]: 58.5%
- viability, T/C [23]: 44.6%
- viability, T/C [24]: 33.3%
- viability, T/C [25]: 79.8%
- viability, T/C [26]: 90.7%
- viability, T/C [27]: 80.3%
- viability, T/C [28]: 56.4%
- viability, T/C [29]: 43.1%
- viability, T/C [30]: 37.1%
- viability, T/C [31]: 93.3%
- viability, T/C [32]: 83.8%
- viability, T/C [33]: 73.5%
- viability, T/C [34]: 59%
- viability, T/C [35]: 46%
- viability, T/C [36]: 37.6%
